Laboratory results: patent US6919457B2, “3-(imidazolyl)-2-aminopropanoic acids” (Pfizer, Inc., priority 2002, dated 2005)

Columns and labels:
[1] = molecular target: T1, TAFIa (Homo sapiens, UniProt Q96IY4); experiment: Assay for TAFIa inhibition (Ki determination, FAAL substrate hydrolysis); assay type: biochemical; conditions: calculated from IC50 using the Cheng-Prusoff equation, activated human TAFI, 24° C.
T1 sequence (Q96IY4 115-423): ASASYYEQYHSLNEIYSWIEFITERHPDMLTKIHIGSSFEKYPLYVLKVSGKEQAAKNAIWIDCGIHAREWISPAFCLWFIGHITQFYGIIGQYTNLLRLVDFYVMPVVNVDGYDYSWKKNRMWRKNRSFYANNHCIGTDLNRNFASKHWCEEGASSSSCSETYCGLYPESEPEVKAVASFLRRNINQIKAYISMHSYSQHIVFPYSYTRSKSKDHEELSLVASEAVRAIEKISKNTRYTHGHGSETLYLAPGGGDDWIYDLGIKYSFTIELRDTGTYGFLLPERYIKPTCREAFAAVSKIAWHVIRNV
Description: The compounds of the present invention may be tested using the following assay, which is based on that disclosed in Boffa et al., J. Biol. Chem. 1998, 273, 2127. The compounds are incubated with activated TAFI and a standard substrate for TAFIa, the rate of hydrolysis of the substrate is determined and compared to the rate of hydrolysis in the absence of the compounds, and the amount of inhibition expressed in terms of Ki.
Human TAFI (recombinant or purified) was activated by incubating 20 μl of stock solution (360 μg/ml) with 10 μl of human thrombin (10 NIH units/ml), 10 μl of rabbit thrombomodulin (30 μg/ml), 6 μl calcium chloride (50 mM) in 50 μL of 20 mM HEPES (N-[2-hydroxyethyl]piperazine-N-[2-ethanesulfonic acid]) buffer containing 150 mM sodium chloride and 0.01% TWEEN 80 (polyoxyethylene-sorbitan monooleate) pH 7.6 for 20 minutes at 22° C. At the end of the incubation period, thrombin was neutralised by the addition of 10 μL of PPACK (D-Phe-Pro-Arg chloromethyl ketone) (100 nM). The resulting TAFIa solution was stored on ice for 5 minutes and finally diluted with 175 μl of HEPES buffer.
ii) Ki Determination (TAFIa)
(§1) A number of different dilutions of the test compound in water were made up. To 20 μl of each dilution was added 150 μl of HEPES buffer and 10 μl of TAFIa, which was then pre-incubated for 15 minutes at 24° C. To each dilution was then added 20 μl furylacryloyl-alanyl-lysine (FAAL) at a standard concentration. Substrate turnover was measured by reading the absorbance of the reaction mixture at 330 nm every 15 seconds for 30 minutes. The reaction was performed at 24° C. and samples were mixed for 3 seconds prior to each absorbance reading.
(§2) A graph of % inhibition against test compound concentration was then plotted; from which was calculated the IC50 value. The Ki value was then calculated using the Cheng-Prusoff equation.
Two controls, positive and negative, were used to check the accuracy of the results in each case. For the first control, the assay was performed as above, but with 20 μl of water rather than a dilution of the test compound. […] For the second control, the assay was performed as above, but with an effective amount of a non specific carboxypeptidase inhibitor rather than a dilution of the test compound.

[2] = molecular target: T2, human CPN (Homo sapiens, UniProt P15169); experiment: CPN Ki determination (TAFIa assay with human CPN substituted for TAFIa); assay type: biochemical; conditions: for Ki: human CPN substituted for TAFIa, calculated Ki; for Selectivity: selectivity for TAFIa over CPN, comparing Ki for CPN with Ki for TAFIa
T2 sequence (P15169 21-458): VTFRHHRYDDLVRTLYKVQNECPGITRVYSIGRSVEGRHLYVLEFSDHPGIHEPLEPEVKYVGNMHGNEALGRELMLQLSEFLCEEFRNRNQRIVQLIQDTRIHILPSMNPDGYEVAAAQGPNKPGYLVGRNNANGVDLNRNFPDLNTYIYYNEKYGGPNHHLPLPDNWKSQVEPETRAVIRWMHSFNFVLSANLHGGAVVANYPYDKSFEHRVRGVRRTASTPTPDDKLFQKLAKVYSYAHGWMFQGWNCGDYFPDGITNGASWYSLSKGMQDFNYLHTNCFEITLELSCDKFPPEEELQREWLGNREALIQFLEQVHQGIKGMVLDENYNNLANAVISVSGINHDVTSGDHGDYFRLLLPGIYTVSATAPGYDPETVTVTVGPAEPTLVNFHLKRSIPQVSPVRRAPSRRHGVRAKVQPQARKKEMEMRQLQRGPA
T2 sequence (P22792 22-545 partner): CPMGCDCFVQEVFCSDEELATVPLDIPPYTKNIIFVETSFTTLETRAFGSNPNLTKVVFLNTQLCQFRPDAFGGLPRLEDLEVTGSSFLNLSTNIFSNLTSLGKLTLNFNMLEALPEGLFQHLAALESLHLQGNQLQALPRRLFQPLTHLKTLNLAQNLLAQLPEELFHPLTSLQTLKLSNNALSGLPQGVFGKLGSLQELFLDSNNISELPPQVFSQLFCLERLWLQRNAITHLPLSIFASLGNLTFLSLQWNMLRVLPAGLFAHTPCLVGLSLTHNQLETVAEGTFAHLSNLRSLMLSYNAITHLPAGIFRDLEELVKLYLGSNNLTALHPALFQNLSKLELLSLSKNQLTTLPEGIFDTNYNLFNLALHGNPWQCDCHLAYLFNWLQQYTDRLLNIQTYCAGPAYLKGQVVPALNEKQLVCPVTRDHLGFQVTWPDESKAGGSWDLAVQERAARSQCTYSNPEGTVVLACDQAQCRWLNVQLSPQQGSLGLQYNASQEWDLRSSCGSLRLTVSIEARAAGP
Description: as §1, §2
The selectivity of the compounds of the present invention for TAFIa over CPN was determined by calculating the Ki of the compounds of the present invention for CPN, then comparing it to the Ki for TAFIa. The Ki was calculated using the assay for the calculation of TAFIa Ki, but substituting 10 μl of human CPN for 10 μl of TAFIa.

Row | Ki [1] [nM] | Ki [2] [nM] | Selectivity [2] | Structure (SMILES)
1 | 22 | > 10000 | >450 | CCCn1cnc(C[C@@H](C(=O)O)N2CC[C@H](N)C2)c1 [Example 4, (+)-(2S)-2-[(3S)-3-Aminopyrrolidinyl]-3-(1-propyl-1H-imidazol-4-yl)propanoic Acid]
2 | 10 |  |  | N[C@H]1CCN([C@@H](Cc2cn(CCc3ccccc3)cn2)C(=O)O)C1 [Example 8, (+)-(2S)-2-[(3S)-3-Aminopyrrolidinyl]-3-[1-(2-phenylethyl)-1H-imidazol-4-yl]propanoic Acid]

Second part, the compound before the results:

Row | Structure (SMILES) | Ki [1] [nM] | Ki [2] [nM] | Selectivity [2]
3 | N[C@H]1CCN([C@@H](Cc2c[nH]cn2)C(=O)O)C1 [Example 2, (+)-(2S)-2-[(3S)-3-Aminopyrrolidinyl]-3-(1H-imidazol-4-yl)propanoic Acid] | 60 |  | 
4 | N[C@H]1CCN([C@@H](Cc2cn(CCC3CCCCC3)cn2)C(=O)O)C1 [Example 6, (+)-(2S)-2-[(3S)-3-Aminopyrrolidinyl]-3-[1-(2-cyclohexylethyl)-1H-imidazol-4-yl]propanoic Acid] | 7 | > 10000 | >1400
5 | N[C@H]1CCN([C@@H](Cc2cn(-c3ccccc3)cn2)C(=O)O)C1 [Example 9, (+)-(2S)-2-[(3S)-3-Aminopyrrolidinyl]-3-[1-phenyl-1H-imidazol-4-yl]propanoic Acid] | 8 |  | 
